31 compounds from patent publication US8143257B2, “Substituted phenols as active agents inhibiting VEGF production” (PTC Therapeutics, Inc., priority 2004, dated 2012) can be followed below.

A value given as a limit tells only on which side of the number the result lay.

The test system of the first test is hypoxia-inducible endogenous VEGF expression. The test is described as follows: Assay to evaluate effect on hypoxia-inducible endogenous VEGF expression (VEGF ELISA, HeLa cells). In kind it is cell-based. The conditions noted are these: HeLa cells cultured 24-48 hours under hypoxic conditions (1% O2, 5% CO2); VEGF in conditioned media by ELISA; read-out: ELISA EC50 (effective concentration required to lower the amount of VEGF translation by 50%). As for the experimental part: Assay to Evaluate Effect on Hypoxia-Inducible Endogenous VEGF Expression
The ability of the compounds of the invention to modulate hypoxia-inducible endogenous VEGF expression is analyzed as follows. VEGF protein levels are monitored by an ELISA assay (R&D Systems). Briefly, HeLa cells are cultured for 24-48 hours under hypoxic conditions (1% O2, 5% CO2, balanced with nitrogen) in the presence or absence of a compound of the invention. The conditioned media is then assayed by ELISA, and the concentration of VEGF is calculated from the standard ELISA curve of each assay.
A dose-response analysis is performed using the ELISA assay and conditions described above. A series of, e.g., seven different concentrations are analyzed. In parallel, a dose-response cytotoxicity assay is performed using Cell Titer Glo (Promega) under the same conditions as the ELISA to ensure that the inhibition of VEGF expression is not due to the cytotoxicity. Dose-response curves are plotted using percentage inhibition versus concentration of the compound, and EC50 and CC50 values are generated for each compound with the maximal inhibition set as 100% and the minimal inhibition as 0%.
The most preferred compounds of the invention are those with μM values of 3 or less.
Take `CC1CCCC(C)N1C(=O)Oc1ccccc1Br` (stereo not shown) [2,6-Dimethyl-piperidine-1-carboxylic acid 2-bromo-phenyl ester]: the EC50 is over 30 µM.

Staying with this test, now noted: Homo sapiens, HeLa, read-out: ELISA EC50 (effective concentration required to lower the amount of VEGF translation by 50%).
As for `CN1CCN(C(=O)Oc2c(Cl)cc(Cl)cc2Cl)CC1` [4-Methyl-piperazine-1-carboxylic acid 2,4,6-trichloro-phenyl ester], the EC50 is 14.2 µM.

Regarding `Cc1ccc(OC(=O)N2CCc3ccccc32)c(Br)c1` [2,3-Dihydro-indole-1-carboxylic acid 2-bromo-4-methyl-phenyl ester], the EC50 was over 30 µM.

As to `CN1CCN(C(=O)Oc2cc(Cl)c(Cl)cc2Cl)CC1` [4-Methyl-piperazine-1-carboxylic acid 2,4,5-trichloro-phenyl ester], the EC50 was over 30 µM.

Regarding `Cc1ccc(OC(=O)N2CCCN(C)CC2)c(Br)c1` [4-Methyl-[1,4]diazepane-1-carboxylic acid 2-bromo-4-methyl-phenyl ester], the EC50 is over 30 µM.

The test is the same for the next values; noted with them: Homo sapiens; HeLa cells cultured 24-48 hours under hypoxic conditions (1% O2, 5% CO2); VEGF in conditioned media by ELISA; read-out: ELISA EC50 (effective concentration required to lower the amount of VEGF translation by 50%).
Turning to `CC(=O)c1c(OC(=O)N2CCCCC2C)ccc2ccccc12` (stereo not shown) [2-Methyl-piperidine-1-carboxylic acid 1-acetyl-naphthalen-2-yl ester], the EC50 is over 30 µM.

As to `Cc1ccc(OC(=O)N2CCCC2)c(Br)c1` [Pyrrolidine-1-carboxylic acid 2-bromo-4-methyl-phenyl ester], the EC50 is over 30 µM.

For `CC1CC(C)CN(C(=O)Oc2ncc3ccccc3c2Cl)C1` (stereo not shown) [3,5-Dimethyl-piperidine-1-carboxylic acid 4-chloro-isoquinolin-3-yl ester], the EC50 is over 10 µM.

As to `O=C(Oc1c(Cl)cc(Cl)cc1Cl)N1CCc2ccccc21` [2,3-Dihydro-indole-1-carboxylic acid 2,4,6-trichloro-phenyl ester], the EC50 is over 30 µM.

Take `O=C(Oc1ccc2cc(Br)ccc2c1Br)N1CCCCC1` [Piperidine-1-carboxylic acid 1,6-dibromo-naphthalen-2-yl ester]: the EC50 was over 30 µM.

`CCN(CC)C(=O)Oc1ccc2ccccc2c1Br` [Diethyl-carbamic acid 1-bromo-naphthalen-2-yl ester]: the EC50 stood at 2 µM.

For `CC1CCCCN1C(=O)Oc1cc(Cl)c(Cl)cc1Cl` (stereo not shown) [2-Methyl-piperidine-1-carboxylic acid 2,4,5-trichloro-phenyl ester], the EC50 was 10.6 µM.

For `O=C(Oc1ccccc1Br)N1CCc2cccnc21` [2,3-Dihydro-pyrrolo[2,3-b]pyridine-1-carboxylic acid 2-bromo-phenyl ester], the EC50 is over 30 µM.

Take `CC(=O)c1c(OC(=O)N2CCCC2)ccc2ccccc12` [Pyrrolidine-1-carboxylic acid 1-acetyl-naphthalen-2-yl ester]: the EC50 is over 30 µM.

Consider `O=C(Nc1ccc2ccccc2c1Cl)N1CCN(c2ccccc2)CC1` [4-Phenyl-piperazine-1-carboxylic acid (1-chloro-naphthalen-2-yl)-amide], for which the EC50 was over 10 µM.

`CC1CC(C)CN(C(=O)Nc2ccc3ccccc3c2)C1` (stereo not shown) [3,5-Dimethyl-piperidine-1-carboxylic acid naphthalen-2-ylamide]: the EC50 is over 10 µM.

Consider `O=C(Oc1cc(Cl)c(Cl)cc1Cl)N1CCCCC1` [Piperidine-1-carboxylic acid 2,4,5-trichloro-phenyl ester], for which the EC50 stood at 18.2 µM.

Consider `O=C(Oc1ccc2ccccc2c1Br)N1CCOCC1` [Morpholine-4-carboxylic acid 1-bromo-naphthalen-2-yl ester], for which the EC50 was found to be 0.999 µM.

On to `O=C(NCC1CCCCC1)Oc1ccc2cc(Br)ccc2c1Br` [Cyclohexylmethyl-carbamic acid 1,6-dibromo-naphthalen-2-yl ester], for which the EC50 is over 30 µM.

As for `O=C(Oc1ccc2ccccc2c1Br)N1CCC(C(O)(c2ccccc2)c2ccccc2)CC1` [4-(Hydroxy-diphenyl-methyl)-piperidine-1-carboxylic acid 1-bromo-naphthalen-2-yl ester], the EC50 was 0.0202 µM.

In the case of `CC1CCCC(C)N1C(=O)Oc1c(Cl)cc(Cl)cc1Cl` (stereo not shown) [2,6-Dimethyl-piperidine-1-carboxylic acid 2,4,6-trichloro-phenyl ester], the EC50 was over 30 µM.

Regarding `O=C(Nc1ccc2ccccc2c1)N1CCC(Cc2ccccc2)CC1` [4-Benzyl-piperidine-1-carboxylic acid naphthalen-2-ylamide], the EC50 amounted to 4.39 µM.

As for `O=C(Oc1cc2ccccc2cn1)N1CCCc2ccccc21` [3,4-Dihydro-2H-quinoline-1-carboxylic acid isoquinolin-3-yl ester], the EC50 is over 30 µM.

Turning to `O=C(Oc1cc2ccccc2cn1)N1CCCCC1` [Piperidine-1-carboxylic acid isoquinolin-3-yl ester], the EC50 was over 30 µM.

For `O=C(Oc1cc2ccccc2cn1)N1CCCC1` [Pyrrolidine-1-carboxylic acid isoquinolin-3-yl ester], the EC50 is over 30 µM.

With `CC1CC(C)CN(C(=O)Nc2ccc3ccccc3c2Cl)C1` (stereo not shown) [3,5-Dimethyl-piperidine-1-carboxylic acid (1-chloro-naphthalen-2-yl)-amide], the EC50 is over 10 µM.

Take `CC1CC(C)CN(C(=O)Oc2ccc3ccccc3c2Br)C1` (stereo not shown) [3,5-Dimethyl-piperidine-1-carboxylic acid 1-bromo-naphthalen-2-yl ester]: the EC50 was found to be 0.129 µM.

For `O=C(Oc1c(Cl)cc(Cl)cc1Cl)N1CCC(Cc2ccccc2)CC1` [4-Benzyl-piperidine-1-carboxylic acid 2,4,6-trichloro-phenyl ester], the EC50 was found to be 3.72 µM.

`CC1CC(C)CN(C(=O)Nc2ccc3ccccc3c2Br)C1` (stereo not shown) [3,5-Dimethyl-piperidine-1-carboxylic acid (1-bromo-naphthalen-2-yl)-amide]: the EC50 is over 10 µM.

On to `Cc1ccc(OC(=O)N2CCC(Cc3ccccc3)CC2)c(Br)c1` [4-Benzyl-piperidine-1-carboxylic acid 2-bromo-4-methyl-phenyl ester], for which the EC50 was over 30 µM.

On to `O=C(Oc1ccc2cc(Br)ccc2c1Br)N1CCOCC1` [Morpholine-4-carboxylic acid 1,6-dibromo-naphthalen-2-yl ester], for which the EC50 is over 30 µM.
